The results in this text go back to patent US9828375B2, “4-position substituted pyrazolopyrimidine derivative, and use thereof in drug preparation” (Guangxi Wuzhou Pharmaceuticals (Group) Co., Ltd., priority 2012, dated 2017).

SMILES strings stand for the structures. Some results are limits rather than exact numbers.

For experiment [1], the system named is human thyrophyma cell line TT. In words: In vitro tumor cell proliferation inhibition (MTT): TT. Format: cell-based. The source says:
The purpose of the experiment was to test the inhibition activity of the compounds of the invention for in vitro human tumor cell proliferation by the methyl thiazolyl tetrazolium (MTT) colorimetry.
Main reagents: RPMI-1640, fetal bovine serum, pancreatin, etc. were purchased from Gibco BRL Company (Invitrogen Corporation, USA) and IMDM medium that was purchased from American Type Culture Collection (ATCC). Methyl thiazolyl tetrazolium (MTT) and dimethyl sulfoxide (DMSO) were products from Sigma Company (USA). Pyrazolopyrimidine derivatives were composed by the inventor. During in vitro experiment, 100% DMSO was prepared into 10 mM storage solution, the solution was stored in a refrigerator at −20° C. for future use, and was diluted to the required concentration with complete culture solution before use.
Cell line and culture: Human leukemia cell line MV4-11, Jurkat, K562, human thyrophyma cell line TT, human gastric carcinoma cell line MKN-45, human malignant melanoma cell lines A375 and A875, human pancreatic carcinoma cell line panc-1, human cervical carcinoma cell line HELA, human colorectal carcinoma cell line HCT116, etc. were purchased from American type culture collection and were preserved by this laboratory. All leukemia cell lines (except MV4-11), gastric carcinoma cell lines and thyrophyma cell lines were cultured in RPMI-1640 complete medium containing 10% fetal bovine serum, 100 U/mL penicillin and 100 μg/mL streptomycin at 37° C. in 5% CO2. The remaining cell lines were cultured in DMEM complete medium containing 10% fetal bovine serum (containing 20% MV4-11 cell), 100 U/mL penicillin and 100 µg/mL streptomycin at 37° C. in 5% CO2.
Cell suspension with cell concentration of 1-2×10^4/mL was adjusted with the complete cell medium and inoculated in a 96-well plate, with each well filled with 200 μl cell suspension that was cultured overnight. On the next day, supernatant was sucked and abandoned (supernatant was sucked upon centrifugation of suspension cells), and then cells were processed with test compounds at gradient concentrations respectively. Meanwhile, a negative control group free from drug and a solvent control group with equal volume were set, and the DMSO concentration was 0.1%. Each dose group was provided with three wells and cultured at 37° C. in 5% CO2. After 72 hours, 20 μl 5 mg/mL MTT reagent was added to each well, and cultured for another 2 to 4 hours, the supernatant was abandoned; 150 μL DMSO was added to each well again, vibrated and mixed evenly for 15 minutes; the absorbance (A) values (proportional to living cell amount) were determined with a microplate reader (λ=570 nm) and averaged. […] Experiment was repeated for 3 times at least. Experimental data were expressed with means, data statistics were tested by t, and P<0.05 means that difference has a statistical significance. The cell proliferation inhibition effects of all compounds as follows are expressed by IC50 or inhibition rate.

In the next experiment the target is SRC (Homo sapiens, UniProt P12931). In words: Kinase inhibition activity test, isotope labeling: SRC. Format: biochemical. The following applies: ATP 45 μM; read-out: SRC IC50 value (inhibitory activity value). The procedure: (§1) The purpose of this experiment was to test the inhibitory activity of the compound of the invention for in vitro kinase with the isotope labeling method (the γ phosphate group on ATP was labeled). In this experiment, the in vitro activity inhibition of such kinases as FLT3, VEGFR2, FLT1, FLT4, RET, c-RAF, B-RAF, c-KIT, PDGFα, PDGFβ, FGFR2, FGFR1, EphA2, EphB2, SRC, ABL, ALK and Met was tested respectively. Staurosporine was reference molecule (or referred to as positive control). The kinase inhibition activity of the test compound was expressed by half-inhibitory concentration (IC50) or the kinase activity inhibition rate of the test compound at a concentration of 10 μM. The IC50 value could be obtained by calculating the kinase activity inhibition rate of the test compound at different concentrations.
(§2) 20 mM 3-(N-morpholinyl)propanesulfonic acid (MOPS); 1 mM ethylenediaminetetraacetic acid (EDTA), 0.01% Brij 35 (Brij-35), 5% glycerol, 0.1% mercaptoethanol, 1 mg/mL bovine serum albumin (BSA), 10 mM manganous dichloride solution (MnCl2), 0.1 mg/mL glutamic acid/tyrosine (4:1) polypeptide (poly(Glu, Tyr)4:1), 50 μM EAIYAAPFAKKK (substrate of FLT3), 0.33 mg/mL myelin basic protein (substrate of VEGFR2), 250 μM KKKSPGEYVNIEFG (substrate of FLT1(h)), 500 μM GGEEEEYFELVKKKK (substrate of FLT4(h)), 250 μM KKKSPGEYVNIEFG (substrate of RET), 0.66 mg/mL myelin basic protein (substrate of C-RAF), 250 μM GGMEDIYFEFMGGKKK (substrate of c-Kit), 250 μM GGMEDIYFEFMGGKKK (substrate of PDGFα), 250 μM KKKSPGEYVNIEFG (substrate of FGFR1), […] GGEEEEYFELVKKKK (substrate of SRC), 50 μM EAIYAAPFAKKK (substrate of ABL), 250 μM KKKSPGEYVNIEFG (substrate of ALK), 250 μM KKKSPGEYVNIEFG (substrate of Met(h)), 10 mM magnesium acetate and γ-^33 P-ATP solution, stop buffer (3% phosphate buffer), washing buffer (75 mM phosphate solution), methanol, Filtermat A membrane, FLT3, VEGFR2, FLT3, VEGFR2, FLT1, FLT4, RET, c-RAF, B-RAF, c-KIT, PDGFRα, PDGFRβ, FGFR2, FGFR1, EphA2, EphB2, SRC, ABL, ALK, Met and other kinases, and the test compounds.
(§3) Buffers (8 mM MOPS with pH value of 7.0, 0.2 mM EDTA and 10 mM MnCl2), (5-10 mU) kinases to be tested (FLT3, VEGFR2, FLT1, FLT4, RET, c-RAF, B-RAF, c-KIT, PDGFRα, PDGFRβ, FGFR2, FGFR1, EphA2, EphB2, SRC, ABL, ALK and Met), substrates of kinases to be tested (refer to experimental materials), 10 mM magnesium acetate and γ-^33 P-ATP solution, and test compounds at different concentrations were added to a reaction tube orderly. […] Reaction was terminated with 5 μL 3% phosphate buffer finally, and 10 μL reaction solution was titrated to the Filtermat A membrane; solution was washed for 3 times with 75 mM phosphate solution with each time lasting 5 minutes, and then washed once with methanol. […]

The target in the next experiment is FGFR1 (Homo sapiens, UniProt P11362). The experiment can be described thus: Kinase inhibition activity test, isotope labeling: FGFR1. Type of experiment: biochemical. The following applies: ATP 200 μM; read-out: FGFR1 IC50 value (inhibitory activity value). On the procedure: as §1, §2, §3
Chain of FGFR1 (P11362 22-822): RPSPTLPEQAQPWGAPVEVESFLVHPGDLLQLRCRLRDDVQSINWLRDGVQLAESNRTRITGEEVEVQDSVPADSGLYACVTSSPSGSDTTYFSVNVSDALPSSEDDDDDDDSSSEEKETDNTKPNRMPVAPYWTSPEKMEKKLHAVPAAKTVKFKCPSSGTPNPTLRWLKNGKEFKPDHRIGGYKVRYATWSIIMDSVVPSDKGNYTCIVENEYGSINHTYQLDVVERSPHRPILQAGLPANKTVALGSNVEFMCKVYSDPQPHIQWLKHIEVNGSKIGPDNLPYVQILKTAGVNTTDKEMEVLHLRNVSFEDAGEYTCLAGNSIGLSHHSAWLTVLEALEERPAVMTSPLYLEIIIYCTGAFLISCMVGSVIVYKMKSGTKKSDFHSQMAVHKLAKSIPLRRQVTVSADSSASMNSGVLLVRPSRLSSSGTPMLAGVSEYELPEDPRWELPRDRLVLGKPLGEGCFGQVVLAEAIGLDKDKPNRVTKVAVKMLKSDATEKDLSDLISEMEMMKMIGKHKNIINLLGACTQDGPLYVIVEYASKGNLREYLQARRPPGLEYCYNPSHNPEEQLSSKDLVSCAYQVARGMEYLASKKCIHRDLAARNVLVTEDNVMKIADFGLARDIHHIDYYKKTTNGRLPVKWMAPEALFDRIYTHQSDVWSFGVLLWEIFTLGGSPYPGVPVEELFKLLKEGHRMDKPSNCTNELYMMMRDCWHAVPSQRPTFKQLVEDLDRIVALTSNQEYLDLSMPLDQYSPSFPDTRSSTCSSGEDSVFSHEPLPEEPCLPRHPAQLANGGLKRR

Chain of SRC (P12931 whole entry): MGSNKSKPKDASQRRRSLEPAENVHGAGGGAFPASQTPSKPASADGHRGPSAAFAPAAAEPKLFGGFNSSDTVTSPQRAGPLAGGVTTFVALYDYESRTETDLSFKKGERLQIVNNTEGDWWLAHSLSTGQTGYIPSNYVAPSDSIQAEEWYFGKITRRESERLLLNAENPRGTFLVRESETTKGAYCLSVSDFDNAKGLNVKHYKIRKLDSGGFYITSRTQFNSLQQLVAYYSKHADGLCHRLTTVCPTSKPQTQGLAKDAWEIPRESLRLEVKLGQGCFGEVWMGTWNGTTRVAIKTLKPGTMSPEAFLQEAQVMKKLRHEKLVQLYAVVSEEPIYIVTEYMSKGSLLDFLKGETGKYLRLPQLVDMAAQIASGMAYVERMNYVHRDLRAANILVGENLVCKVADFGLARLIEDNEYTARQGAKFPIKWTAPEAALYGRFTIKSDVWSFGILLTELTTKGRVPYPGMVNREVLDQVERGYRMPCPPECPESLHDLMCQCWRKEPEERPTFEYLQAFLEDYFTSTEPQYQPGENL

Turning to `O=C(Nc1ccc(Oc2ncnc3[nH]ncc23)cc1)Nc1ccc(C(F)(F)F)cc1` [4a-1], the half-maximal inhibitory concentration (IC50) in experiment [1] (Homo sapiens, 72 h) is less than 50 µM.
In the case of `O=C(Nc1ccc(Oc2ncnc3[nH]ncc23)cc1)Nc1ccc(Cl)c(C(F)(F)F)c1` [4a-2], the IC50 at SRC is less than 10 µM; in experiment [1] (72 hours), 3.42 µM; on FGFR1, less than 10 µM.
`O=C(Nc1ccc(Oc2ncnc3[nH]ncc23)cc1)Nc1cccc(C(F)(F)F)c1` [4a-6]: the IC50 came to 3.01 µM at SRC; 0.312 µM in experiment [1] (Homo sapiens, 72 h); 2.25 µM at FGFR1.
For the compound `O=C(Nc1ccc(C(F)(F)F)cc1)Nc1ccc(Oc2ncnc3[nH]ncc23)c(F)c1` [4a-9, 1-(4-((1H-pyrazolopyrimidine-4-yl)oxy)-3-fluorophenyl)-3-(4-(trifluoromethyl)phenyl)urea], the IC50 in experiment [1] (72 hours) amounted to 1.63 µM.
Same read-out and setting: for `O=C(Nc1ccc(Oc2ncnc3[nH]ncc23)cc1)Nc1ccc(C(F)(F)F)cc1Cl` [4a-13] the value was 3 to 10 µM; for `CC(C)(C)c1cc(NC(=O)Nc2ccc(Oc3ncnc4[nH]ncc34)cc2)n(-c2ccccc2)n1` [4a-24], 1.55 µM.
For `CC(C)(C)c1cc(NC(=O)Nc2ccc(Oc3ncnc4[nH]ncc34)cc2)on1` [4a-25], the values for the IC50 (on SRC; in experiment [1] (72 hours); at FGFR1) were less than 10 µM, 1.02 µM and less than 10 µM, respectively.
Consider `CC(C)(C)c1cc(NC(=O)Nc2ccc(Oc3ncnc4[nH]ncc34)cc2)no1` [4a-26], for which half-maximal inhibition in experiment [1] (Homo sapiens, 72 h) (IC50) required 2.12 µM.
For `O=C(Nc1ccc(Oc2ncnc3[nH]ncc23)cc1)Nc1cc(C(F)(F)F)on1` [4a-28], the IC50 in experiment [1] (Homo sapiens, 72 h) is 3 to 10 µM.
With `CC(C)(C)c1cc(NC(=O)Nc2ccc(Oc3ncnc4[nH]ncc34)c(F)c2)no1` [4a-31], the 50% inhibitory concentration (IC50) is less than 10 µM on SRC, 0.943 µM in experiment [1] (72 hours) and less than 10 µM on FGFR1.
Consider `O=C(Nc1ccc(NC(=O)N2C=NC=C3NNC=C32)cc1)Nc1ccc(Cl)c(C(F)(F)F)c1` [4b-5, 1-(4-(1H-pyrazolopyrimidine-4-amido)phenyl)-3-(4-chloro-3-(trifluoromethyl)phenyl)urea], for which it took 9.48 µM to reach half-maximal inhibition in experiment [1] (Homo sapiens, 72 h) (IC50).
In the case of `O=C(Nc1ccc(Sc2ncnc3[nH]ncc23)cc1)Nc1cccc(C(F)(F)F)c1` [4c-2], in experiment [1] (72 hours), 7.89 µM corresponded to half-maximal inhibition (IC50).
The same measure, in the same setting: for `CC(C)(C)c1cc(NC(=O)Nc2ccc(Sc3ncnc4[nH]ncc34)cc2)no1` [4c-3, 1-(4-(1H-pyrazolopyrimidine-4-sulfydryl)phenyl)-3-(5-tert-butylisoxazol-3-yl)urea] the value was 3 to 10 µM.
For `CC(C)n1ncc2c(Oc3ccc(NC(=O)Nc4cc(C(C)(C)C)on4)cc3)ncnc21` [5a-4, 1-(5-tert-butylisoxazol-3-yl)-3-(4-(1-isopropyl-(1H-pyrazolopyrimidine-4-yl)oxy)phenyl)urea], it took 9.89 µM to reach half-maximal inhibition in experiment [1] (Homo sapiens, 72 h) (IC50).
